We go through 24 compounds from patent publication US11839613B2, “Pyrimidine derivatives as PGE2 receptor modulators” (IDORSIA PHARMACEUTICALS LTD, priority 2017, dated 2023).

Test [1] deals with PTGER2 (EP2) (Homo sapiens (Human), UniProt P43116). Put plainly: hEP2 b-arrestin assay (PathHunter HEK 293 PTGER2 b-arrestin cells). The format is cell-based. The following applies: antagonistic activity, beta-arrestin assay; read-out: hEP2 b-arr IC50. The protocol:
Plate is pre-incubated 15 minutes at 37° C. Then five microliters of PGE2 (final conc. 5 μM) are transferred into the assay plate. Plate is incubated 120 minutes at 37° C.
(each concentration is measured in duplicate)

Test [2] deals with EP4 (Homo sapiens (Human), UniProt P35408). Put plainly: hEP4 cAMP assay (BT549 breast cancer cells, HTRF cAMP). The format is cell-based. The following applies: antagonistic activity, PGE2 6 nM. Put shortly: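 cAMP accumulation quantified by HTRF competition between cellular cAMP and d2-labeled cAMP for cryptate anti-cAMP antibody. Cells: endogenously EP4-expressing BT549, buffer with 2 mM IBMX; 45 min RT compound preincubation preceded 30 min RT challenge with PGE2 at 6 nM final.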
(cAMP levels reflect the balance of adenylyl cyclase and phosphodiesterase activity.)

The target in test [3] is PTGER4 (EP4) (Homo sapiens (Human), UniProt P35408). Kind of test: cell-based.
The target in test [4] is EP2 (Homo sapiens (Human), UniProt P43116). Kind of test: hEP2 cAMP assay (SF295 glioblastoma cells, HTRF cAMP). It is filed as cell-based. The following applies: antagonistic activity. Summed up: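 PGE2-driven cAMP accumulation was measured by HTRF in SF295 cells, which express endogenous EP2 only. Cells in assay buffer with 2 mM IBMX were pre-incubated 45 min at RT, then incubated 30 min at RT. Detection used competition between cellular cAMP and d2-cAMP for a cryptate anti-cAMP antibody.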
Chain of EP2 (P43116 whole entry): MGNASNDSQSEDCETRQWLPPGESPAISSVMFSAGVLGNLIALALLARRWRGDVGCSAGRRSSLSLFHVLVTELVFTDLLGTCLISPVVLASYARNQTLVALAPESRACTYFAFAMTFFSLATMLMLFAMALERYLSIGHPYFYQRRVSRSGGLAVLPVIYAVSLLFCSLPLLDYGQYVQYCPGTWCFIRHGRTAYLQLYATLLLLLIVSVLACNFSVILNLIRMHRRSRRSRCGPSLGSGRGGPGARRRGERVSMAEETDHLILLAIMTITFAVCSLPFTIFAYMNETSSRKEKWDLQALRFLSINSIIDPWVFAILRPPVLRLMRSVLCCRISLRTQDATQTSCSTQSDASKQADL

Chain of PTGER2 (EP2) (P43116 whole entry): as above
Chain of PTGER4 (EP4) (P35408 whole entry): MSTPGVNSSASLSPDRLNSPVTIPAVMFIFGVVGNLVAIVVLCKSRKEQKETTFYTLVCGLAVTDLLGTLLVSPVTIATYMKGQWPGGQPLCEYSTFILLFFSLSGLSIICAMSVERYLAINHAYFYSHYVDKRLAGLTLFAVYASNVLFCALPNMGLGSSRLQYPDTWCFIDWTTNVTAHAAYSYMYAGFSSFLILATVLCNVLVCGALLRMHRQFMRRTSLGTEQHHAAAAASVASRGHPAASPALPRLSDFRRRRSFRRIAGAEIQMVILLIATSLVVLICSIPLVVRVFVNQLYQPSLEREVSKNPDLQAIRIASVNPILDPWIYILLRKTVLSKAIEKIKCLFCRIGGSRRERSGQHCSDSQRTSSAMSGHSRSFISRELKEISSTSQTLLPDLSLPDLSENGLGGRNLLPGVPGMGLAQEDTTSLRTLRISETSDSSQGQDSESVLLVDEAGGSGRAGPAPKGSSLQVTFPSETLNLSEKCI
Chain of EP4 (P35408 whole entry): as above

A word on the IC50: it is the midpoint of a concentration-inhibition curve. Turning to `CCSc1cc(-c2cc(NCCc3cc4ccoc4cc3OC)ncn2)ccc1C(=O)O` [Ex 158, 2-Ethylsulfanyl-4-{6-[2-(6-methoxy-benzofuran-5-yl)-ethylamino]-pyrimidin-4-yl}-benzoic acid], the half-inhibitory concentration (IC50) was 0.023 µM in test [1], 0.157 µM in test [2], 0.185 µM in test [3] and 0.016 µM in test [4].

Take `CCOc1cc(-c2cc(NCCc3cc(Cl)c4sccc4c3)ncn2)sc1C(=O)O` [Example 359, 5-{6-[2-(7-Chloro-benzo[b]thiophen-5-yl)-ethylamino]-pyrimidin-4-yl}-3-ethoxy-thiophene-2-carboxylic acid]: the half-maximal inhibitory concentration (IC50) in test [1] is 0.04 µM; in test [2], 0.002 µM; in test [3], 0.009 µM; in test [4], 0.061 µM.

Regarding `CCOc1cc(-c2cc(NCCc3cc4occc4cc3OC)ncn2)ccc1OCC(=O)O` [Ex 159, (2-Ethoxy-4-{6-[2-(5-methoxy-benzofuran-6-yl)-ethylamino]-pyrimidin-4-yl}-phenoxy)-acetic acid], the IC50 is 0.18 µM in test [1], 0.157 µM in test [2], 0.14 µM in test [3] and 0.179 µM in test [4].

Take `CCOc1cc(-c2cc(NCCc3cc4c(cc3C)OCCO4)ncn2)sc1C(=O)O` [Ex 30, 3-Ethoxy-5-{6-[2-(7-methyl-2,3-dihydro-benzo[1,4]dioxin-6-yl)-ethylamino]-pyrimidin-4-yl}-thiophene-2-carboxylic acid]: the half-maximal inhibitory concentration (IC50) turned out to be 0.029 µM in test [1], 0.017 µM in test [2], 0.051 µM in test [3] and 0.014 µM in test [4].

For `CCOc1cc(-c2cc(NCCc3ccc4ccccc4c3C)ncn2)ccc1-c1nnn[nH]1` [Ex 156], the IC50 was 0.107 µM in test [1], 0.154 µM in test [2], 0.036 µM in test [3] and 0.221 µM in test [4].

Consider `CCOc1cc(-c2cc(NCCc3cc4c(cc3C)OCCO4)ncn2)sc1-c1noc(=O)[nH]1` [Example 341, 3-(3-Ethoxy-5-{6-[2-(7-methyl-2,3-dihydro-benzo[1,4]dioxin-6-yl)-ethylamino]-pyrimidin-4-yl}-thiophen-2-yl)-[1,2,4]oxadiazol-5(4H)-one], for which the IC50 amounted to 0.012 µM in test [1], 0.036 µM in test [2], 0.014 µM in test [3] and 0.041 µM in test [4].

As to `CCOc1cc(-c2cc(NCCc3ccc4c(c3)OCC4)ncn2)sc1C(=O)O` [Ex 67, 5-{6-[2-(2,3-Dihydro-benzofuran-6-yl)-ethylamino]-pyrimidin-4-yl}-3-ethoxy-thiophene-2-carboxylic acid], the IC50 in test [1] stood at 0.123 µM; in test [2], 0.036 µM; in test [3], 0.04 µM; in test [4] it was 0.11 µM.

`CCOc1cc(-c2cc(NCCc3cc4c(cc3OC(F)F)OCO4)ncn2)sc1C(=O)O` [Ex 119, 5-{6-[2-(6-Difluoromethoxy-benzo[1,3]dioxol-5-yl)-ethylamino]-pyrimidin-4-yl}-3-ethoxy-thiophene-2-carboxylic acid]: the IC50 turned out to be 0.032 µM in test [1], 0.09 µM in test [2], 0.113 µM in test [3] and 0.041 µM in test [4].

As to `CCOc1cc(-c2cc(NCCc3cc4ccsc4cc3C)ncn2)ccc1CC(=O)O` [Ex 290], the IC50 in test [1] stood at 0.163 µM; in test [2], 0.527 µM; in test [3] it was 0.438 µM; in test [4] it was 0.194 µM.

Turning to `CCOc1cc(-c2cc(NCCc3ccc4sccc4c3)ncn2)ccc1C(=O)O` [Ex 155, 4-[6-(2-Benzo[b]thiophen-5-yl-ethylamino)-pyrimidin-4-yl]-2-ethoxy-benzoic acid], the IC50 came out at 0.232 µM in test [1], 0.151 µM in test [2], 0.301 µM in test [3] and 0.161 µM in test [4].

With `CCOc1cc(-c2cc(NCCc3c(OCC)cc4ccccc4c3C)ncn2)ccc1CC(=O)O` [Example 420, (2-Ethoxy-4-{6-[2-(3-ethoxy-1-methyl-naphthalen-2-yl)-ethylamino]-pyrimidin-4-yl}-phenyl)-acetic acid], the IC50 in test [1] turned out to be 0.027 µM; in test [2] (BT549 cells) it was 0.119 µM; in test [3] it was 0.03 µM; in test [4], 0.257 µM.

Consider `CCOc1cc(-c2cc(NCCc3cc4ccoc4cc3OC)ncn2)ccc1OCC(=O)O` [Ex 112, (2-Ethoxy-4-{6-[2-(6-methoxy-benzofuran-5-yl)-ethylamino]-pyrimidin-4-yl}-phenoxy)-acetic acid], for which the half-maximal inhibitory concentration (IC50) in test [1] was 0.04 µM; in test [2], 0.082 µM; in test [3], 0.127 µM; in test [4] it was 0.069 µM.

On to `CCOc1cc(-c2cc(NCCc3c(OCC)cc4ccccc4c3C)ncn2)ccc1C(=O)O` [Example 418, 2-Ethoxy-4-{6-[2-(3-ethoxy-1-methyl-naphthalen-2-yl)-ethylamino]-pyrimidin-4-yl}-benzoic acid], for which the IC50 was 0.01 µM in test [1], 0.148 µM in test [2] (BT549 cells), 0.054 µM in test [3] and 0.045 µM in test [4].

As for `COc1cc2ccoc2cc1CCNc1cc(-c2ccc(C(=O)O)c(OC3CCC3)c2)ncn1` [Ex 124, 2-Cyclobutoxy-4-{6-[2-(5-methoxy-benzofuran-6-yl)-ethylamino]-pyrimidin-4-yl}-benzoic acid], the IC50 in test [1] came to 0.113 µM; in test [2], 0.099 µM; in test [3], 0.215 µM; in test [4] it was 0.095 µM.

As to `CCOc1cc(-c2cc(NCCc3cc4ccoc4cc3OC)ncn2)sc1C(=O)O` [Ex 12, 3-Ethoxy-5-{6-[2-(6-methoxy-benzofuran-5-yl)-ethylamino]-pyrimidin-4-yl}-thiophene-2-carboxylic acid], the half-inhibitory concentration (IC50) was 0.007 µM in test [1], 0.007 µM in test [2], 0.02 µM in test [3] and 0.003 µM in test [4].

In the case of `CCOc1cc(-c2cc(NCCc3c(OC)cc4c(c3C)OCCO4)ncn2)ccc1C(=O)O` [Example 395, 2-Ethoxy-4-{6-[2-(7-methoxy-5-methyl-2,3-dihydro-benzo[1,4]dioxin-6-yl)-ethylamino]-pyrimidin-4-yl}-benzoic acid], the IC50 was found to be 0.004 µM in test [1], 0.128 µM in test [2] (BT549 cells), 0.098 µM in test [3] and 0.005 µM in test [4].

On to `COc1cc2occc2cc1CCNc1cc(-c2ccc(C(=O)O)c(SC)c2)ncn1` [Ex 193, 4-{6-[2-(6-Methoxy-benzofuran-5-yl)-ethylamino]-pyrimidin-4-yl}-2-methylsulfanyl-benzoic acid], for which the concentration for half-maximal inhibition (IC50) in test [1] was 0.01 µM; in test [2], 0.211 µM; in test [3], 0.349 µM; in test [4] it was 0.012 µM.

On to `CCOc1cc(-c2cc(NCCc3ccc4ccccc4c3C)ncn2)sc1C(=O)NS(N)(=O)=O` [Example 354, 3-Ethoxy-5-(6-((2-(1-methylnaphthalen-2-yl)ethyl)amino)pyrimidin-4-yl)-N-sulfamoylthiophene-2-carboxamide], for which the 50% inhibitory concentration (IC50) is 0.041 µM in test [1], 0.056 µM in test [2], 0.032 µM in test [3] and 0.027 µM in test [4].

With `Cc1c(CCNc2cc(-c3cc4c(C(=O)O)cccc4[nH]3)ncn2)ccc2ccccc12` [Ex 127, 2-{6-[2-(1-Methyl-naphthalen-2-yl)-ethylamino]-pyrimidin-4-yl}-1H-indole-4-carboxylic acid], the IC50 in test [1] amounted to 0.181 µM; in test [2] it was 0.103 µM; in test [3], 0.109 µM; in test [4] it was 0.101 µM.

For the compound `CCOc1cc(-c2cc(NCCc3c(F)c(F)c4cc(C)oc4c3OC)ncn2)sc1C(=O)O` [Ex 55, 5-{6-[2-(4,5-Difluoro-7-methoxy-2-methyl-benzofuran-6-yl)-ethylamino]-pyrimidin-4-yl}-3-ethoxy-thiophene-2-carboxylic acid], the 50% inhibitory concentration (IC50) worked out at 0.844 µM in test [1], 0.016 µM in test [2], 0.025 µM in test [3] and 0.335 µM in test [4].

With `CCOc1cc(-c2cc(NCCc3ccc4scc(C)c4c3)ncn2)sc1C(=O)O` [Ex 47, 3-Ethoxy-5-{6-[2-(3-methyl-benzo[b]thiophen-5-yl)-ethylamino]-pyrimidin-4-yl}-thiophene-2-carboxylic acid], the concentration for half-maximal inhibition (IC50) was found to be 0.045 µM in test [1], 0.022 µM in test [2], 0.085 µM in test [3] and 0.091 µM in test [4].

`CCOc1cc(-c2cc(NCCc3cc4ccoc4cc3F)ncn2)sc1C(=O)O` [Ex 13, 3-Ethoxy-5-{6-[2-(6-fluoro-benzofuran-5-yl)-ethylamino]-pyrimidin-4-yl}-thiophene-2-carboxylic acid]: the 50% inhibitory concentration (IC50) in test [1] is 0.012 µM; in test [2] it was 0.008 µM; in test [3], 0.009 µM; in test [4] it was 0.015 µM.

On to `CSc1cc(-c2cc(NCCc3ccc4ccoc4c3)ncn2)ccc1C(=O)O` [Ex 250, 4-[6-(2-Benzofuran-6-yl-ethylamino)-pyrimidin-4-yl]-2-methylsulfanyl-benzoic acid], for which the IC50 is 0.112 µM in test [1], 0.287 µM in test [2], 0.609 µM in test [3] and 0.077 µM in test [4].

`CCOc1cc2ccccc2c(C)c1CCNc1cc(-c2ccc(C(=O)O)c(SC)c2)ncn1` [Example 419, 4-{6-[2-(3-Ethoxy-1-methyl-naphthalen-2-yl)-ethylamino]-pyrimidin-4-yl}-2-methylsulfanyl-benzoic acid]: the IC50 in test [1] was found to be 0.003 µM; in test [2] (BT549 cells), 0.085 µM; in test [3], 0.03 µM; in test [4] it was 0.029 µM.
